Test results reported in patent US20230404921A1, “LYOTROPIC LIQUID CRYSTALLINE PHASE PARTICLE” (priority 2020, published 2023).
In brackets after ≈: the same amount, converted by molar mass. Like-named read-outs stand apart in the source and are kept apart here.

What was measured:
[1] = tested on: Pseudomonas aeruginosa (ATCC 2835); test: MTS based cell viability assay; settings: for inhibition at 0.5 µg/mL: ATCC2835, drug conc 0.5 ug/ml; for inhibition at 2.5 µg/mL: ATCC2835, drug conc 2.5 ug/ml; for inhibition at 5 µg/mL: ATCC2835, drug conc 5 ug/ml; for inhibition at 7.5 µg/mL: ATCC2835, drug conc 7.5 ug/ml; for inhibition at 10 µg/mL: ATCC2835, drug conc 10 ug/ml; for inhibition at 15 µg/mL: ATCC2835, drug conc 15 ug/ml; for inhibition at 20 µg/mL: ATCC2835, drug conc 20 ug/ml; for inhibition at 25 µg/mL: ATCC2835, drug conc 25 ug/ml
[2] = tested on: fluconazole-resistant Cryptococcus neoformans; test: Antimicrobial assay MIC-50 / MIC-90, 96 well plate; format: cell-based; settings: for MIC50: Cryptococcus neoformans
[3] = tested on: Candida albicans (ATCC10251); test: Fungal cell viability assay (MTS)
[4] = Pseudomonas aeruginosa, read-out: Percentage inhibition

Row | SMILES | inhibition at 0.5 µg/mL [1, 4] [%] | inhibition at 2.5 µg/mL [1, 4] [%] | inhibition at 5 µg/mL [1, 4] [%] | inhibition at 7.5 µg/mL [1, 4] [%] | inhibition at 10 µg/mL [1, 4] [%] | inhibition at 15 µg/mL [1, 4] [%] | inhibition at 20 µg/mL [1, 4] [%] | inhibition at 25 µg/mL [1, 4] [%] | also measured
1 | CC1(C)S[C@@H]2[C@H](NC(=O)[C@H](N)c3ccccc3)C(=O)N2[C@H]1C(=O)O [Ampicillin] | 39 | 39.8 | 41.9 | 42.8 | 46.4 | 62.2 | 69.9 | 72.3 | Percentage inhibition ([1]; drug conc 0.5 ug/ml): 38.64%
2 | OC(Cn1cncn1)(Cn1cncn1)c1ccc(F)cc1F [Fluconazole only, Fluconazole] | – | – | – | – | – | – | – | – | MIC50 ([2]; pH 5.17): 12.4 µg/mL (≈ 40.4 µM); MIC50 ([2]; pH 7.08, read-out: MIC-50): 12.2 µg/mL (≈ 39.7 µM); MIC-90 ([2]; pH 5.17): fails to reach MIC-90
3 | C[C@@H]1[C@H](O)[C@@H](C)/C=C/C=C/C=C/C=C/C=C/C=C/C=C/[C@H](O[C@@H]2O[C@H](C)[C@@H](O)[C@H](N)[C@@H]2O)C[C@@H]2O[C@](O)(C[C@@H](O)C[C@@H](O)[C@H](O)CC[C@@H](O)C[C@@H](O)CC(=O)O[C@H]1C)C[C@H](O)[C@H]2C(=O)O [amphotericin, Amphotericin B] | – | – | – | – | – | – | – | – | concentration required to achieve 98% inhibition [3]: 10 µg/mL
4 | CO[C@@H]1[C@@H](OC(N)=O)[C@@H](O)[C@H](Oc2ccc3c(O)c(NC(=O)c4ccc(O)c(CC=C(C)C)c4)c(=O)oc3c2C)OC1(C)C [novobiocin, Novobiocin] | – | – | – | – | – | – | – | – | inhibition at 80 µg/mL ([1]; Pseudomonas aeruginosa, ATCC2835, drug conc 80 ug/ml, read-out: Percentage inhibition): 13%
5 | CN[C@H](CC(C)C)C(=O)N[C@H]1C(=O)N[C@@H](CC(N)=O)C(=O)N[C@H]2C(=O)N[C@H]3C(=O)N[C@H](C(=O)N[C@H](C(=O)O)c4cc(O)cc(O)c4-c4cc3ccc4O)[C@H](O)c3ccc(c(Cl)c3)Oc3cc2cc(c3O[C@@H]2O[C@H](CO)[C@@H](O)[C@H](O)[C@H]2O[C@H]2C[C@](C)(N)[C@H](O)[C@H](C)O2)Oc2ccc(cc2Cl)[C@H]1O [vancomycin, Vancomycin] | 1.24 | 9.83 | 11.6 | 14.2 | 16.6 | 17.6 | 18 | 18.4 | –
